Laboratory results reported in patent US7514251B2, “O-methyltransferases of tetrahydrobenzylisoquinoline alkaloid biosynthesis in Papaver somniferum” (priority 2003, dated 2009).
Read-outs that look alike come from different tables or passages of the source. Marks after values point to notes of the source that are not given here.

Columns and labels:
Format in all cases: biochemical
[1] = target: T1, PSOMT1 ((R,S)-reticuline 7-O-methyltransferase) (Papaver somniferum, UniProt Q6WUC2); conditions: for Substrate specificity, relative activity of PSOMT1: 100% activity = 1.5 pmoles/sec/mg total protein, radioassay; for methylated by PSOMT1 (radioassay, in words): one of forty substrates tested
T1 construct: The full-length cDNA generated by RT-PCR was ligated into pFastBac HTa; His6 (N); made in house; host or cells: Spodoptera frugiperda Sf9 (baculovirus, pFastBac HTa)
T1 sequence (Q6WUC2 whole entry): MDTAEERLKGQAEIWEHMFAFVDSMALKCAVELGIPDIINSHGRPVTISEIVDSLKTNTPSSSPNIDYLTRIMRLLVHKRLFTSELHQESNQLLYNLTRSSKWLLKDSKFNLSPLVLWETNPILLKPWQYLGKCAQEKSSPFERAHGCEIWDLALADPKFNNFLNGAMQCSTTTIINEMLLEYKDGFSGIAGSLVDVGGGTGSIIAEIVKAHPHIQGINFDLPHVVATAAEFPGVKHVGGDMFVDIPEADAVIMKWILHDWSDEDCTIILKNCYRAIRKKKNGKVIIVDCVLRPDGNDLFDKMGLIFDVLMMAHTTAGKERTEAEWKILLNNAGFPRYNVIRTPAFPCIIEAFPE
Text: (§1) Heterologous Expression and Enzyme Purification—The full-length cDNA generated by RT-PCR was ligated into pFastBac HTa that had been digested with restriction endonucleases BamHI and NotI. The recombinant plasmid was transposed into baculovirus DNA in the Escherichia coli strain DH10BAC (Life Technologies) and then transfected into Spodoptera frugiperda Sf9 cells according to the manufacturer's instructions. The insect cells were propagated and the recombinant virus was amplified according to (16,17). INSECT-XPRESS serum-free medium (Bio Whittaker) was used in the enzyme expression experiments.
(§2) After infection of 20 ml suspension grown insect cells had proceded for 3-4 days at 28° C. and 130 rpm, the cells were removed by centrifugation under sterile conditions at 900× g for 5 min at 4° C. All subsequent steps were performed at 4° C. The pellet was discarded and to the medium was added 0.73 g NaCl, 2.5 ml glycerol and 50 μl […]-mercaptoethanol. The pH was adjusted to 7.0 with 1.0 M NaOH. The His-tagged O-methyltransferase was then purified by affinity chromatography using a cobalt resin (Talon, Clontech) according to the manufacturer's instructions.
(§3) Enzyme assay and product identification: The O-methylation reactions catalysed by the two O-methyltransferases were assayed at least two times in duplicate according to Rüffer et al. (1983a; 1983b) as follows. Substrate (25 nmol), [methyl-3H]-AdoMet (20,000 dpm, 0.4 fmol), AdoMet (10 nmol) Tris/HC1 buffer pH 8.0 (10 μmol), ascorbate (5 μmol) and 5-10 μg of enzyme were incubated in a total volume of 150 μl at 35° C. for 5-60 min. The enzymic reaction was terminated by addition of 200 μl ethylacetate. The organic phase ([…]) was added to 3 ml high flash point liquid scintillation cocktail (Packard) and the radioactivity quantified with a Beckman LS6000TA liquid scintillation counter.
(§4) General Methods—Total RNA was isolated and RNA gels were run and blotted as described previously (20). Genomic DNA was isolated and DNA gels were run and blotted according to (21). cDNA clones were labeled by PCR labeling with [[…]-^32P]dATP. Hybridized RNA on RNA gel blots and DNA on DNA gel blots were visualized with a STORM phosphor imager (Molecular Dynamics). The entire nucleotide sequence on both DNA strands of the full-length clone was determined by dideoxy cycle sequencing using internal DNA sequences for the design of deoxyoligonucleotides as sequencing primers. Saturation curves and double reciprocal plots were constructed with the Fig. P program Version 2.7 (Biosoft, Cambridge, UK). The influence of pH on enzyme activity was monitored in sodium citrate (pH 4-6), sodium phosphate (pH 6-7.0) and Tris-HCl (pH 7.0-9), glycine/NaOH (pH 9-10.5) buffered solutions.

[2] = target: T1, PSOMT1 ((R,S)-reticuline 7-O-methyltransferase); experiment: HPLC-MS identification of enzymic products of PSOMT1; conditions: for position of O-methylation by PSOMT1: HPLC-MS of enzymic product
Protocol: (§5) The identity of the enzymic reaction products was ascertained by HPLC-MS using a Finnigan MAT TSQ 7000 (electrospray voltage 4.5 kV, capillary temperature 220° C., carrier gas N2) coupled to a Micro-tech Ultra-Plus Micro-LC equipped with an Ultrasep RP18 column; 5 μm; 1×10 mm), Solvent system (A) 99.8% (v/v) H2O, 0.2% HOAc (B) 99.8% CH3CN (v/v), 0.2% HOAc; gradient: 0-15 min 10-90% B, 15-25 min 90% B; flow 70 μl min^−1). The collision-induced dissociation (CID; collision energy, −25 eV; collision gas, argon; collision pressure, 1.8×10^−3 Torr) mass spectra for the tetrahydrobenzylisoquinoline alkaloids were recorded.
(§6) Structure Elucidation of Enzymic Products—Initial enzyme activity measurements were carried out using a radioassay. Many of the substrates tested contained more than one site of potential methylation. […] Tetrahydrobenzylisoquinolines readily cleave at low ionization energies into the corresponding isoquinoline- and benzyl ions. This enables identification of methylation at either moiety. Each alkaloidal substrate was monitored for purity by HLPC-MS and the fragmentation pattern was determined. Enzymic product fragmentation patterns were then compared to those of substrate. All substrates were methylated by either PSOMT1 or PSOMT2 on the isoquinoline moiety. For example, (R)- or (S)-reticuline ([M+H]^+ m/z 330) has the major fragment ions m/z 192 (isoquinoline) and m/z 137 (benzyl). The methylation of (R)- or (S)-reticuline by PSOMT1 results in a product of [M+H]^+ m/z 344 (methylated (R)- or (S)-reticuline) with fragment ions at m/z 206 (isoquinoline+CH2) and m/z 137 (unmodified benzyl). Likewise, (R,S)-norcoclaurine ([M+H]^+ m/z 272) has the major fragment ions m/z 161 (isoquinoline) and m/z 107 (benzyl). The methylation of (R,S)-norcoclaurine by PSOMT2 results in a product of [M+H]^+ m/z 286 (methylated (R,S)-norcoclaurine) with fragment ions at m/z 175 (isoquinoline+CH2) and m/z 107 (unmodified benzyl).

[3] = target: T2, PSOMT2 ((R,S)-norcoclaurine 6-O-methyltransferase) (Papaver somniferum, UniProt Q6WUC1); experiment: Radioassay of recombinant PSOMT2 with [methyl-3H]-AdoMet (substrate specificity, kinetics, pH and temperature optima); conditions: for Substrate specificity, relative activity of PSOMT2: 100% activity = 2.0 pmoles/sec/mg total protein, radioassay; for Vmax Substrate / kcat Substrate / kcat/Km ratio relative to that obtained for (R,S)-norcoclaurine / pH optimum of methyl transfer / Km: PSOMT2; for methylated by PSOMT2 (radioassay, in words): one of forty substrates tested
T2 construct: The full-length cDNA generated by RT-PCR was ligated into pFastBac HTa; His6 (N); made in house; host or cells: Spodoptera frugiperda Sf9 (baculovirus, pFastBac HTa)
T2 sequence (Q6WUC1 1-346): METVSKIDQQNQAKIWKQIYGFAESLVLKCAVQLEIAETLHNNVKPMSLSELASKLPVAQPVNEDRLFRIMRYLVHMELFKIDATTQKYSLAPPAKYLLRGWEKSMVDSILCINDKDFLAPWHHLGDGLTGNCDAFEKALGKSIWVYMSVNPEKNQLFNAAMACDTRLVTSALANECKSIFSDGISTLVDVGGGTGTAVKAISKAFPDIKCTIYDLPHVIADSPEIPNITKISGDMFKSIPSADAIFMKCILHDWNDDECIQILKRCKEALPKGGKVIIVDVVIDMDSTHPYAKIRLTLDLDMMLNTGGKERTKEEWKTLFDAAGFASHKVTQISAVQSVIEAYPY
Text: as §1, §2, §3, §4

[4] = target: T2, PSOMT2 ((R,S)-norcoclaurine 6-O-methyltransferase); experiment: HPLC-MS identification of enzymic products of PSOMT2; conditions: HPLC-MS of enzymic product
Protocol: as §5, §6

[5] = co-substrate AdoMet with the named substrate, read-out: Km AdoMet
[6] = PSOMT1, co-substrate AdoMet with the named substrate, read-out: Km AdoMet

## COc1cc(C[C@@H]2c3cc(O)c(OC)cc3CCN2C)ccc1O (racemic) [(R,S)-Orientaline]
[1]
  Substrate specificity, relative activity of PSOMT1: 48%
  methylated by PSOMT1 (radioassay, in words): methylates
[2]
  position of O-methylation by PSOMT1: O-methylated at C-7
[2]; PSOMT1, main product 7-O-methylorientaline
  share of product that is double methylated 7,4′-O-dimethylorientaline (laudanosine) and monomethylated 4′-O-methylorientaline: Approximately 1%
[3]
  Substrate specificity, relative activity of PSOMT2: 0%

## COc1ccc(C[C@H]2NCCc3cc(O)c(OC)cc32)cc1O [(R)-Norprotosinomenine]
[1]
  Substrate specificity, relative activity of PSOMT1: 0%
[4]
  position of O-methylation by PSOMT2: at C-6
[3]
  Substrate specificity, relative activity of PSOMT2: 26%
  Vmax Substrate: 1 pmol/s
  kcat Substrate: 0.02 s⁻¹
  kcat/Km ratio relative to that obtained for (R,S)-norcoclaurine: 55%
  pH optimum of methyl transfer: 7.5
  methylated by PSOMT2 (radioassay, in words): methylating
[3]; [5]
  Km: 200 µM
[3]; read-out: Km Substrate
  Km: 5 µM

## COc1ccc(C[C@@H]2c3cc(OC)c(O)cc3CCN2C)cc1O [(R)-Protosinomenine]
[1]
  Substrate specificity, relative activity of PSOMT1: 52%
  methylated by PSOMT1 (radioassay, in words): methylates
[1]; PSOMT1
  Vmax Substrate: 2 pmol/s
  kcat Substrate: 0.03 s⁻¹
  pH optimum of methylation: 9.0
  ratio kcat/Km: 1670 M⁻¹ s⁻¹
  temperature optimum: 39 °C
[1]; [6]
  Km: 320 µM
[1]; PSOMT1, read-out: Km Substrate
  Km: 16 µM
[2]
  position of O-methylation by PSOMT1: O-methylated by PSOMT1 at C-6
[3]
  Substrate specificity, relative activity of PSOMT2: 0%

## COc1ccc(C[C@@H]2c3cc(O)c(OC)cc3CCN2C)cc1O [(R)-Reticuline]
[1]
  Substrate specificity, relative activity of PSOMT1: 100^a %
  methylated by PSOMT1 (radioassay, in words): methylates
[1]; PSOMT1
  Vmax Substrate: 4 pmol/s
  kcat Substrate: 0.07 s⁻¹
  pH optimum of methylation: 8.0
  ratio kcat/Km: 4200 M⁻¹ s⁻¹
  temperature optimum: 37 °C
[1]; [6]
  Km: 310 µM
[1]; PSOMT1, read-out: Km Substrate
  Km: 17 µM
[2]
  position of O-methylation by PSOMT1: O-methylated at C-7
[3]
  Substrate specificity, relative activity of PSOMT2: 0%

## COc1ccc(C[C@@H]2NCCc3cc(O)c(OC)cc32)cc1O [(S)-Norprotosinomenine]
[1]
  Substrate specificity, relative activity of PSOMT1: 0%
[4]
  position of O-methylation by PSOMT2: at C-6
[3]
  Substrate specificity, relative activity of PSOMT2: 26%
  Vmax Substrate: 1 pmol/s
  kcat Substrate: 0.02 s⁻¹
  kcat/Km ratio relative to that obtained for (R,S)-norcoclaurine: 55%
  pH optimum of methyl transfer: 7.5
  methylated by PSOMT2 (radioassay, in words): methylating
[3]; [5]
  Km: 260 µM
[3]; read-out: Km Substrate
  Km: 5 µM

## COc1ccc(C[C@H]2c3cc(O)c(OC)cc3CCN2C)cc1O [(S)-Reticuline]
[1]
  Substrate specificity, relative activity of PSOMT1: 100^a %
  methylated by PSOMT1 (radioassay, in words): methylates
[1]; PSOMT1
  Vmax Substrate: 4 pmol/s
  kcat Substrate: 0.07 s⁻¹
  pH optimum of methylation: 8.0
  ratio kcat/Km: 4500 M⁻¹ s⁻¹
  temperature optimum: 37 °C
[1]; [6]
  Km: 360 µM
[1]; PSOMT1, read-out: Km Substrate
  Km: 16 µM
[2]
  position of O-methylation by PSOMT1: O-methylated at C-7
[3]
  Substrate specificity, relative activity of PSOMT2: 0%

## COc1ccccc1O [Guaiacol]
[1]
  Substrate specificity, relative activity of PSOMT1: 242%
  methylated by PSOMT1 (radioassay, in words): methylates
[1]; PSOMT1
  Vmax Substrate: 6 pmol/s
  kcat Substrate: 0.1 s⁻¹
  kcat/Km ratio relative to the values determined for reticuline: 135%
  pH optimum of methylation: 8.0
  ratio kcat/Km: 5870 M⁻¹ s⁻¹
  temperature optimum: 37 °C
[1]; read-out: Km Substrate, PSOMT1
  Km: 17 µM
[3]
  Substrate specificity, relative activity of PSOMT2: 0%

## COc1ccc(C(=O)O)cc1O [Isovanillic acid]
[1]
  Substrate specificity, relative activity of PSOMT1: 40%
  methylated by PSOMT1 (radioassay, in words): methylates
[1]; PSOMT1
  Vmax Substrate: 1 pmol/s
  kcat Substrate: 0.02 s⁻¹
  pH optimum of methylation: 7.5
  ratio kcat/Km: 1210 M⁻¹ s⁻¹
[1]; read-out: Km Substrate, PSOMT1
  Km: 14 µM
[3]
  Substrate specificity, relative activity of PSOMT2: 0%

## O=c1c(O)c(-c2ccc(O)cc2O)oc2cc(O)cc(O)c12 [Morin]
[1]
  Substrate specificity, relative activity of PSOMT1: 0%
[3]
  Substrate specificity, relative activity of PSOMT2: 0%

## CN1CC[C@]23c4c5ccc(O)c4O[C@H]2[C@@H](O)C=C[C@H]3[C@H]1C5 [Morphine]
[1]
  Substrate specificity, relative activity of PSOMT1: 0%
[3]
  Substrate specificity, relative activity of PSOMT2: 0%

## O=C(O)c1ccc(O)c(O)c1 [Protocatechuic acid]
[1]
  Substrate specificity, relative activity of PSOMT1: 0%
[3]
  Substrate specificity, relative activity of PSOMT2: 0%

## COc1c(-c2ccc(O)c(O)c2)oc2cc(O)cc(O)c2c1=O [Quercetin-3-methylether]
[1]
  Substrate specificity, relative activity of PSOMT1: 0%
[3]
  Substrate specificity, relative activity of PSOMT2: 0%

## COc1cc(O)c2c(=O)c(O)c(-c3ccc(O)c(O)c3)oc2c1 [Quercetin-7-methylether]
[1]
  Substrate specificity, relative activity of PSOMT1: 0%
[3]
  Substrate specificity, relative activity of PSOMT2: 0%

## O=c1c(O)c(-c2ccc(O)c(O)c2)oc2cc(O)cc(O)c12 [Quercetin]
[1]
  Substrate specificity, relative activity of PSOMT1: 0%
[3]
  Substrate specificity, relative activity of PSOMT2: 0%

## COC1=C[C@]23CCN(C)[C@H](Cc4ccc(OC)c(O)c42)C3=CC1=O [Salutaridine]
[1]
  Substrate specificity, relative activity of PSOMT1: 0%
[3]
  Substrate specificity, relative activity of PSOMT2: 0%

## COc1cc(C(=O)O)ccc1O [Vanillic acid]
[1]
  Substrate specificity, relative activity of PSOMT1: 0%
[3]
  Substrate specificity, relative activity of PSOMT2: 0%
